Results as given in article PMC6222410, “Design, Synthesis and Docking Studies of Novel Macrocyclic Pentapeptides as Anticancer Multi-Targeted Kinase Inhibitors” (Molecules : A Journal of Synthetic Chemistry and Natural …, 2018).
Read-outs that look alike come from different tables or passages of the source.

Assays:
[1] = system: HepG-2 cell line; assay: In vitro cytotoxicity on HepG-2 cell line; type: cell-based; details: HepG-2 human hepatocellular carcinoma cells, concentration inhibiting cell viability by 50%, mean of three values, read-out: IC50 (Mean ± SEM) HepG-2
Description: (§1) In vitro bioassay on human cancer cell lines was adopted against two cancer cell lines (MCF-7 and HepG-2). HepG2, human hepatocellular carcinoma and MCF-7, human breast cancer cell lines were obtained from Sigma-Aldrich Chemie GmbH, Taufkirchen, Germany.

[2] = system: MCF-7 cell line; assay: In vitro cytotoxicity on MCF-7 cell line; type: cell-based; details: MCF-7 human breast cancer cells; concentration inhibiting cell viability by 50%; mean of three values; read-out: IC50 (Mean ± SEM) MCF-7
Description: as §1

[3] = target: CDK-2 (Homo sapiens, UniProt P24941); assay: In vitro kinase inhibition, ELISA assay; type: biochemical; details: mean of three values, read-out: IC50 (Mean±SEM) CDK-2
[4] = target: PDGFRβ (Homo sapiens, UniProt P09619); assay: In vitro kinase inhibition, ELISA assay; type: biochemical; details: mean of three values, read-out: IC50 (Mean±SEM) PDGFRβ
[5] = target: EGFR (Homo sapiens, UniProt P00533); assay: In vitro kinase inhibition, ELISA assay; type: biochemical; details: mean of three values, read-out: IC50 (Mean±SEM) EGFR
Experimental: The in vitro enzyme inhibition determination for compound 5c was carried out in confirmatory diagnostic unit, Vacsera, Egypt. […]

Chain of EGFR (P00533 25-1210): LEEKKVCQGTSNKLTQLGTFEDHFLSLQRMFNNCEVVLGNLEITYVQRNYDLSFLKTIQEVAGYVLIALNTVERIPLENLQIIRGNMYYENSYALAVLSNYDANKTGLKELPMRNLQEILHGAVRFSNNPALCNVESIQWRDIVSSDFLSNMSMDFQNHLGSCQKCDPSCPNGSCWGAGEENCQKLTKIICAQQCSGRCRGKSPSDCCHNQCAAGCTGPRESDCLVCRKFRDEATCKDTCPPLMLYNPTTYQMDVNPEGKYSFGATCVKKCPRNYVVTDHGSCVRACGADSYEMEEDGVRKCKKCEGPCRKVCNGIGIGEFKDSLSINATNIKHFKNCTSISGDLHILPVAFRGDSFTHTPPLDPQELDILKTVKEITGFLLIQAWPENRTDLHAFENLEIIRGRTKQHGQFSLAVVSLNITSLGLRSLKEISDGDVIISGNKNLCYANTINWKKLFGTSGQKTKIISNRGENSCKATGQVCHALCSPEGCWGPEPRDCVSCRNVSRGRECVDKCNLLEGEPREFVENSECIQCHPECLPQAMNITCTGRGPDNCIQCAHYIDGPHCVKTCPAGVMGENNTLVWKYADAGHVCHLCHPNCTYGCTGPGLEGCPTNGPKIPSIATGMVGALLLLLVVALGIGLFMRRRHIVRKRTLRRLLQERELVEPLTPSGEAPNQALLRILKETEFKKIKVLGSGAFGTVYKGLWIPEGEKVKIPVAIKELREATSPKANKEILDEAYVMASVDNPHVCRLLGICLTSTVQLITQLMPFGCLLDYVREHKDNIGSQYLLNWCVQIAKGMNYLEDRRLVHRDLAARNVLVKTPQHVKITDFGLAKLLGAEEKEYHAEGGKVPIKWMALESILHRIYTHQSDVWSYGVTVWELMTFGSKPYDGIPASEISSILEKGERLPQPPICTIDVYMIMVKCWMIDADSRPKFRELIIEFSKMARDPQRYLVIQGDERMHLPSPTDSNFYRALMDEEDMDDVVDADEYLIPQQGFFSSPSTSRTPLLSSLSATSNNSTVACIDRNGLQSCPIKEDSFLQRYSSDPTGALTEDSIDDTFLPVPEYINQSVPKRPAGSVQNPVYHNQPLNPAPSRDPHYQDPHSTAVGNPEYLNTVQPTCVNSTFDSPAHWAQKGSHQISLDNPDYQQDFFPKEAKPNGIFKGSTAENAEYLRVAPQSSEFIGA
Chain of PDGFRβ (P09619 33-1106): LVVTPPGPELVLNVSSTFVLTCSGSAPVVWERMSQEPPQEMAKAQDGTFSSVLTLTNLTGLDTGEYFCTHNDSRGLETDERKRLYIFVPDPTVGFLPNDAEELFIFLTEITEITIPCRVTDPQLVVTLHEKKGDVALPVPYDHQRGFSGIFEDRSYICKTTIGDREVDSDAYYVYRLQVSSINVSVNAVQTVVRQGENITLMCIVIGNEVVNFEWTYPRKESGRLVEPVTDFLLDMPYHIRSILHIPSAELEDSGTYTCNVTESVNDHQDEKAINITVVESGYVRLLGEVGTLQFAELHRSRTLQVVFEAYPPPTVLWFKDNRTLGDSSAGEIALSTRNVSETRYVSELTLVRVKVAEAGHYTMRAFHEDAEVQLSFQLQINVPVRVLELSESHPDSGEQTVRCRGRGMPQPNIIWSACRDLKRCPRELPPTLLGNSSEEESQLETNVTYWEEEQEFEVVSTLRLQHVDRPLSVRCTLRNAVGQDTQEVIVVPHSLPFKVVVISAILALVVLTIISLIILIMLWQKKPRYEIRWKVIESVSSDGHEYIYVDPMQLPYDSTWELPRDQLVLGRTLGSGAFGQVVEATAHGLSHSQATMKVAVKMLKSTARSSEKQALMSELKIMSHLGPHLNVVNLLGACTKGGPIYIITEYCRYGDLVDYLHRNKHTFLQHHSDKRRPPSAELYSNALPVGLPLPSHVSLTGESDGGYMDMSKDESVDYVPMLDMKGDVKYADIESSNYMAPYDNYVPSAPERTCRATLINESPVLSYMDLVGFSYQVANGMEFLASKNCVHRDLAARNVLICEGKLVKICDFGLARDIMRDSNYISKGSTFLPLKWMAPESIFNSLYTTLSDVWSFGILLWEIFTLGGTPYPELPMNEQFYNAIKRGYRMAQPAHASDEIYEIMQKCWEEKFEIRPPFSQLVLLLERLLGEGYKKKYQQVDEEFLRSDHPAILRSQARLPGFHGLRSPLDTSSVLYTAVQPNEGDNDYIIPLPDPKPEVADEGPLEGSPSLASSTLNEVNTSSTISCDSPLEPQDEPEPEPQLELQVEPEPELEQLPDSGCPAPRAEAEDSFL

## O=c1[nH]cc(F)c(=O)[nH]1 [5-Fluorouracil®, 5-Fluorouracil, reference compound]
[1]; HepG2
  IC50: 43.8 ± 1.84 µM

## CC[C@H](C)[C@H](NC(=O)c1cccc(C(=O)N[C@H](C(=O)N[C@H](C(=O)OC)[C@@H](C)CC)[C@@H](C)CC)n1)C(=O)N[C@H](C(=O)OC)[C@@H](C)CC [Compound 2a, N^α-Dipicolinoyl-bis[L-ILe-L-ILe-methyl ester]]
other
  melting point: 106 to 108 °C
[2]
  IC50: 31.6 ± 1.3 µM
[1]
  IC50: 20.4 ± 1.36 µM

## CC[C@H](C)[C@H](NC(=O)c1cccc(C(=O)N[C@H](C(=O)N[C@@H](Cc2ccccc2)C(=O)OC)[C@@H](C)CC)n1)C(=O)N[C@@H](Cc1ccccc1)C(=O)OC [Compound 2b, N^α-Dipicolinoyl-bis[L-ILe-L-Phe-methyl ester]]
other
  melting point: 122 to 124 °C
[2]
  IC50: 32.6 ± 1.5 µM
[1]
  IC50: 15.8 ± 1.66 µM

## CC[C@H](C)[C@H](NC(=O)[C@H](Cc1ccccc1)NC(=O)c1cccc(C(=O)N[C@@H](Cc2ccccc2)C(=O)N[C@H](C(=O)OC)[C@@H](C)CC)n1)C(=O)OC [Compound 2c, N^α-Dipicolinoyl-bis[L-Phe-L-ILe-methyl ester]]
other
  melting point: 150 to 152 °C
[2]
  IC50: > 100 µM
[1]
  IC50: 35.5 ± 1.83 µM

## CC[C@H](C)[C@H](NC(=O)[C@@H](NC(=O)c1cccc(C(=O)N[C@H](C(=O)N[C@H](C(=O)O)[C@@H](C)CC)[C@@H](C)CC)n1)[C@@H](C)CC)C(=O)O [Compound 3a, N^α-Dipicolinoyl-bis[L-ILe-L-ILe]acid]
other
  melting point: 178 to 180 °C
[2]
  IC50: > 100 µM
[1]
  IC50: 26 ± 2.35 µM

## CC[C@H](C)[C@H](NC(=O)c1cccc(C(=O)N[C@H](C(=O)N[C@@H](Cc2ccccc2)C(=O)O)[C@@H](C)CC)n1)C(=O)N[C@@H](Cc1ccccc1)C(=O)O [Compound 3b, N^α-Dipicolinoyl-bis[L-ILe-L-Phe]acid]
other
  melting point: 184 to 186 °C
[2]
  IC50: 25.3 ± 1.18 µM
[1]
  IC50: 13.5 ± 1.45 µM

## CC[C@H](C)[C@H](NC(=O)[C@H](Cc1ccccc1)NC(=O)c1cccc(C(=O)N[C@@H](Cc2ccccc2)C(=O)N[C@H](C(=O)O)[C@@H](C)CC)n1)C(=O)O [Compound 3c, N^α-Dipicolinoyl-bis[L-Phe-L-ILe]acid]
other
  melting point: 202 to 204 °C
[2]
  IC50: 29.6 ± 2.06 µM
[1]
  IC50: 26.6 ± 1.85 µM

## CC[C@H](C)[C@@H]1NC(=O)c2cccc(n2)C(=O)N[C@@H]([C@@H](C)CC)C(=O)N[C@@H]([C@@H](C)CC)C(=O)N[C@H](C(=O)OC)CCCCNC(=O)[C@H]([C@@H](C)CC)NC1=O [Compound 4a, Cyclo-(N^α-dipicolinoyl)-bis-[L-ILe-L-ILe]-L-Lys-OMe]
other
  melting point: 77 to 79 °C
[2]
  IC50: > 100 µM
[1]
  IC50: 11.6 ± 2.7 µM

## CC[C@H](C)[C@@H]1NC(=O)c2cccc(n2)C(=O)N[C@@H]([C@@H](C)CC)C(=O)N[C@@H](Cc2ccccc2)C(=O)N[C@H](C(=O)OC)CCCCNC(=O)[C@H](Cc2ccccc2)NC1=O [Compound 4b, Cyclo-(N^α-Dipicolinoyl)-bis-[L-ILe-L-Phe]-L-Lys-OMe]
other
  melting point: 104 to 106 °C
[2]
  IC50: 10.5 ± 1.33 µM
[1]
  IC50: 10.2 ± 2.2 µM

## CC[C@H](C)[C@@H]1NC(=O)[C@H](Cc2ccccc2)NC(=O)c2cccc(n2)C(=O)N[C@@H](Cc2ccccc2)C(=O)N[C@@H]([C@@H](C)CC)C(=O)N[C@H](C(=O)OC)CCCCNC1=O [Compound 4c, Cyclo-(N^α-Dipicolinoyl)-bis-[L-Phe-L-ILe]-L-Lys-OMe]
other
  melting point: 140 to 142 °C
[2]
  IC50: 29.2 ± 1.39 µM
[1]
  IC50: 18.8 ± 1.47 µM

## CC[C@H](C)[C@@H]1NC(=O)c2cccc(n2)C(=O)N[C@@H]([C@@H](C)CC)C(=O)N[C@@H]([C@@H](C)CC)C(=O)N[C@H](C(=O)O)CCCCNC(=O)[C@H]([C@@H](C)CC)NC1=O [Compound 5a, Cyclo-(N^α-dipicolinoyl)-bis [L-ILe-L-ILe]-L-Lys-OH]
other
  melting point: 108 to 110 °C
[2]
  IC50: 12.7 ± 2.4 µM
[1]
  IC50: 11.2 ± 1.95 µM

## CC[C@H](C)[C@@H]1NC(=O)c2cccc(n2)C(=O)N[C@@H]([C@@H](C)CC)C(=O)N[C@@H](Cc2ccccc2)C(=O)N[C@H](C(=O)O)CCCCNC(=O)[C@H](Cc2ccccc2)NC1=O [Compound 5b, Cyclo-(N^α-dipicolinoyl)-bis [L-ILe-L-Phe]-L-Lys-OH]
other
  melting point: 128 to 130 °C
[2]
  IC50: 11.3 ± 1.15 µM
[1]
  IC50: 10.1 ± 2.05 µM

## CC[C@H](C)[C@@H]1NC(=O)[C@H](Cc2ccccc2)NC(=O)c2cccc(n2)C(=O)N[C@@H](Cc2ccccc2)C(=O)N[C@@H]([C@@H](C)CC)C(=O)N[C@H](C(=O)O)CCCCNC1=O [Compound 5c, Cyclo-(N^α-dipicolinoyl)-bis [L-Phe-L-ILe]-L-Lys-OH]
other
  melting point: 178 to 180 °C
[2]
  IC50: 9.41 ± 1.25 µM
[3]
  IC50: 0.06 µM
[4]
  IC50: 0.08 µM
[5]
  IC50: 0.14 µM
[1]
  IC50: 7.53 ± 1.33 µM

## CC[C@H](C)[C@@H]1NC(=O)c2cccc(n2)C(=O)N[C@@H]([C@@H](C)CC)C(=O)N[C@@H]([C@@H](C)CC)C(=O)N[C@H](C(=O)NN)CCCCNC(=O)[C@H]([C@@H](C)CC)NC1=O [Compound 6a, Cyclo-(N^α-dipicolinoyl)-bis[L-ILe-L-ILe]-L-Lys-NHNH2]
other
  melting point: 180 to 182 °C
[2]
  IC50: 11.8 ± 1.62 µM
[1]
  IC50: 12.4 ± 1.3 µM

## CC[C@H](C)[C@@H]1NC(=O)c2cccc(n2)C(=O)N[C@@H]([C@@H](C)CC)C(=O)N[C@@H](Cc2ccccc2)C(=O)N[C@H](C(=O)NN)CCCCNC(=O)[C@H](Cc2ccccc2)NC1=O [Compound 6b, Cyclo-(N^α-dipicolinoyl)-bis[L-ILe-L-Phe]-L-Lys-NHNH2]
other
  melting point: 161 to 163 °C
[2]
  IC50: 10.9 ± 1.1 µM
[1]
  IC50: 11.5 ± 1.7 µM

## CC[C@H](C)[C@@H]1NC(=O)[C@H](Cc2ccccc2)NC(=O)c2cccc(n2)C(=O)N[C@@H](Cc2ccccc2)C(=O)N[C@@H]([C@@H](C)CC)C(=O)N[C@H](C(=O)NN)CCCCNC1=O [Compound 6c, Cyclo-(N^α-Dipicolinoyl)-bis[L-Phe-L-ILe]-L-Lys-NHNH2]
other
  melting point: 208 to 210 °C
[2]
  IC50: > 100 µM
[1]
  IC50: 12.1 ± 1.68 µM
